Experimental data from patent publication US20260357349A1, “METHODS OF IDENTIFYING AND TREATING CANCER” (Agency for Science, Technology and Research, priority 2022, published 2026).

Legend:
[1] = test system: RELA occupancy on the chromatin (786-O cells); experiment: RELA ChIP after bortezomib, 786-O; format: cell-based, human
Protocol: Colony formation of parental (WT) or PBRM1 knockout (KO) 786-O cells expressing shRNA against non-targeting control (NC), RELA, or NFKB1 cultured with a) 10% or b) 2% serum. c) Gene expression changes of NF-κB target genes in 786-O cells treated with 0.006 μM bortezomib (BTZ) or 0.6 µM Bay 11-7085 for 24 hours (n=3 technical replicates). * p-value<0.05 (two-sided t-test). […] A positive log fold change refers to gain in bortezomib treatment over DMSO. g) Colony formation of 786-O isogenic cells and h) NCC432 isogenic cells treated with bortezomib for a week. Tumor formation of isogenic 786-O cells (i) and NCC432 cells (j) treated with PBS control or 0.5 mg/kg bortezomib (BTZ) in NSG mice. (n=10 tumors per group for 786-O, and n=16 tumors for NCC432 PBS EV group and 12 tumors for NCC432 PBS PBRM1 group and 14 tumors for both NCC432 EV and PBRM1 BTZ groups). Data are presented as mean values+/−SEM. k) Model for the study.
Data are presented as median+/−25%. Lower whisker is smallest observation greater than or equal to 25% quantile-1.5*interquantile range (IQR). Upper whisker represents the largest observation less than or equal to 75%+1.5*IQR. Amount of normalized RELA protein in the c) input or d) co-immunoprecipitated with SMARCA4 from 3 independent runs. […]

IκBα / NF-κB = conditions: mechanism; cited from earlier work
metastatic RCC = conditions: monotherapy, cited from earlier work
[2] = phase II trial of 37 patients with metastatic RCC

Compound: CC(C)C[C@H](NC(=O)[C@H](Cc1ccccc1)NC(=O)c1cnccn1)B(O)O [bortezomib]
- RELA occupancy (figure title) ([1]; 786-O, 0.005 μM bortezomib, 9 hours): abrogates RELA occupancy
- RELA occupancy on the chromatin, PB1 KO ([1]; PB1 KO 786-O cells, ChIP-qPCR): profound reduction of RELA occupancy
- effect on IκBα and NF-κB DNA binding (IκBα / NF-κB): induces nuclear translocation and accumulation of IκBα which then associates with nuclear NF-κB and inhibits its DNA binding activity
- ranking of RCC response amongst solid tumors (metastatic RCC; literature survey of 32 trials): most responsive tumor type amongst all solid tumors
- partial response (metastatic RCC; [2]): 4 patients
- stable disease (metastatic RCC; [2]): 14 patients
